# Tests used:
# PPHN = assay: NO inhalation in two more infants with PPHN; format: in vivo, human
# Excerpt: Subsequent subjects. Two more infants with PPHN have been treated by NO inhalation.
# [1] = system: non-constricted human lung; assay: 40 ppm NO in healthy volunteers breathing air (non-constricted lung); format: in vivo
# Procedure: The effects of breathing 40 ppm NO were studied in five awake, healthy human volunteer subjects inhaling various gas mixtures for 10 min periods, with measurements starting at 6 min.
# [2] = system: methacholine bronchoconstriction; assay: Dose-response of intermittent NO inhalation during methacholine infusion; format: in vivo, Hartley strain guinea pigs
# Procedure: (§1) Male Hartley strain guinea pigs (300-440g body wt) were anesthetized with α-chloralose (50 mg/kg) and urethane (500 mg/kg) (Drazen et al., J. Appl. Physiol. 48:613-618, 1980). A tracheostomy was performed, and the animals were intubated with a tubing adaptor (ID 1.65 mm) and ventilated with a small animal ventilator (Harvard Apparatus, a division of Ealing Scientific, Natick, Mass.) at 8 ml/kg and 60 breaths/min. A jugular vein was cannulated for intravenous administration of drugs. The chest was opened by bilateral excision of a portion of the ribs anteriorly so that the lungs were exposed to atmospheric pressure (Shore and Drazen, J. Appl. Physiol. 67:2504-2511, 1989). A positive end expiratory pressure of 3-4 cmH2 O was provided.
# (§2) Guinea pigs were then placed inside a plethysmograph (Amdur and Mead, Am. J. Physiol. 192:363-368, 1958), that was connected to a large reservoir containing copper mesh to maintain the plethysmograph isothermal. Plethysmograph pressure was measured with a differential pressure transducer (Celesco, Canoga Park, Calif.); the opposite side of this transducer was connected to a similar reservoir. Pressure at the airway opening was measured from a side tap in the tracheal canula. Transpulmonary pressure was measured with a differential pressure transducer (Celesco) as the difference between airway opening pressure and the pressure inside the plethysmograph. Flow was obtained by electrical differentiation of the volume (plethysmograph pressure) signal. Tidal volume was measured by recording the pressure changes in the body plethysmograph. Volume, flow, and transpulmonary pressure signals were recorded on a strip chart (General Scanning, Watertown, Mass.). Pulmonary resistance and dynamic compliance were calculated by a computer program according to the method of von Neergard and Wirz (Z. Klin. Med. 105:35-50, 1927; Z. Klin. Med. 105:52-82, 1927).
# The apparatus and conditions used are diagrammed in FIG. 7. The inspired gas was a precise mixture of nitrogen and oxygen blended via a Y piece tube and immediately diluted with nitric oxide (NO) to produce the correct inspired concentration in a 5 liter gas mixture bag. With volumetrically calibrated flowmeters, varying quantities of NO mixed with N2 were substituted for pure N2 to obtain the desired No concentration at an inspired oxygen concentration (FIO2) of 0.30-0.32. The total inflow gas rate was maintained at 2.5 l/min. The gas mixture was then sent via a 3 cm ID tube filled with 90 ml of soda lime to scavenge nitrogen dioxide (Stavert and Lehnert, Inhal. Toxicol. 2:53-67, 1990), then through a filter before the ventilator. Just after the ventilator inflow tube, a vacuum was adjusted to maintain the gas mixture bag nearly empty and continuously drive fresh gas into the ventilator circuit. The expiratory gas from the ventilator was scavenged with a vacuum and set up to maintain a positive end expiratory pressure of 3-4 cm H2 O. NO was obtained from Air Products and Chemicals, Inc. (Allentown, Pa.) as a mixture of 1,034 ppm NO in pure nitrogen. A chemiluminescence NO/NOx analysis (Fontijin et al., Anal. Chem. 42:575-579, 1970) was performed before and after the soda lime filled tube, and just before the inspiratory valve of the ventilator (see FIG. 7) to assess the nitrogen dioxide concentration and adjust the flowmeters to provide the different levels of NO concentration.
# ii. Dose-response study of intermittent NO inhalation during methacholine infusion. After baseline measurements, the same guinea pigs were given an intravenous infusion of a potent bronchoconstrictor, methacholine, at a rate of 2.5-7.5 μg/kg/min in order to reach a medium level of bronchoconstriction (3 to 4 fold the baseline lung resistance). After a stable period, each animal was ventilated with a series of gas mixtures of 5, 10, 25, 50, 100 and 300 ppm NO for 10 minutes at constant FIO2 (0.30-0.32). […]
# [3] = system: methacholine bronchoconstriction; assay: NO and terbutaline aerosol during methacholine infusion; format: in vivo, Hartley strain guinea pigs; settings: NO gas before or after inhaled terbutaline
# Procedure: as §1
# Guinea pigs were then placed inside a plethysmograph (Amdur and Mead, Am. J. Physiol. 192:363-368, 1958), that was connected to a large reservoir containing copper mesh to maintain the plethysmograph isothermal. Plethysmograph pressure was measured with a differential pressure transducer (Celesco, Canoga Park, Calif.); the opposite side of this transducer was connected to a similar reservoir. Pressure at the airway opening was measured from a side tap in the tracheal canula. Transpulmonary pressure was measured with a differential pressure transducer (Celesco) as the difference between airway opening pressure and the pressure inside the plethysmograph. […]
# haemoglobin = settings: Meyer 1988; cited from earlier work
# [4] = system: methacholine bronchoconstriction; assay: Tolerance to 1 hour of NO inhalation during methacholine infusion; format: in vivo, Hartley strain guinea pigs
# Procedure: as §1
# as §2, with “Flow was obtained by electrical differentiation of the volume (plethysmograph pressure) signal.” left out
# The apparatus and conditions used are diagrammed in FIG. 7. […] With volumetrically calibrated flowmeters, varying quantities of NO mixed with N2 were substituted for pure N2 to obtain the desired No concentration at an inspired oxygen concentration (FIO2) of 0.30-0.32. […]
# [5] = system: primary pulmonary hypertension; settings: cited from earlier work
# ARDS = assay: NO inhalation in nine additional ARDS patients; format: in vivo, human
# Excerpt: Subsequent subjects. Nine additional patients have been treated for ARDS by NO inhalation, for periods up to 28 days.
# [6] = air (21% O2) + 40 ppm NO, n = 5, X ± S.D.
# [7] = NO-containing gas mixtures (FIGS. 9-12)
structure (smiles),measurement,setting,value
"[N]=O [NO, nitric oxide]",preductal oxygenation,PPHN; 20-80 ppm NO,increases in preductal oxygenation
same,response,PPHN; 20-80 ppm NO,excellent response
same,survival,"PPHN; 20-80 ppm NO, two infants",both survived longterm
same,need for ECMO,"PPHN; one of the infants, NO inhalation alone",ECMO was altogether avoided
same,pulmonary or systemic vasodilatory effect,"[1]; 40 ppm NO, normal (21% v/v) O2",no pulmonary or systemic vasodilatory effect
same,PVR,"[1]; air (21% O2) + 40 ppm NO, n = 5",0.61 mmHg · min/l
same,CO,[1]; [6],6.40 ± 0.88 L/min
same,CVP,[1]; [6],6.3 ± 1.7 mmHG
same,MAP,[1]; [6],88.0 ± 3.7 mmHg
same,PAP,[1]; [6],14.0 ± 1.8 mmHg
same,PCWP,[1]; [6],10.1 ± 2.5 mmHg
same,PaCO2,[1]; [6],38 ± 5 mmHg
same,PaO2,[1]; [6],94.7 ± 16.3 mmHg
same,SaO2,[1]; [6],96.0 ± 1.0%
same,bronchodilation,[2]; 5 ppm NO,produced bronchodilation
same,airway resistance,[2]; 100 or 300 ppm NO,greater and more rapid reduction of airway resistance
same,reversal of methacholine bronchoconstriction,[2]; 300 ppm NO,Complete reversal of methacholine bronchoconstriction
same,lung compliance,[2]; [7],increase of lung compliance
same,lung resistance,[2]; [7],"consistent, rapid and profound reduction of lung resistance"
same,onset of dilation,[2]; after inhalation,within a few seconds
same,reversal of methacholine bronchoconstriction,[2]; nitric oxide inhalation,reversed the profound bronchoconstriction
same,bronchodilating effects of NO plus terbutaline,[3],additive
same,binding to haemoglobin,haemoglobin,the most rapidly binding ligand to haemoglobin so far discovered
same,tolerance,"[4]; 100 ppm NO, one hour",no tolerance
same,airway resistance,"[4]; 100 ppm NO, one hour (FIG. 13)",effectively and stably reduced the airway resistance for one hour
same,methemoglobin levels,[4]; after one hour of breathing 100 ppm NO,below 5%
same,PAP difference as percentage of ΔPAP,[5]; 40 ppm NO,about 6%
same,difference in PAP versus air,[5]; 40 ppm NO,2.9 mm Hg
same,average PAP,"[5]; breathing 40 ppm NO, seven patients, 59.6 mm Hg breathing air",56.7 mm Hg
same,average reduction in PVR,[5]; during inhalation of NO,9%
same,decrease in SAP,[5]; during inhalation of NO,No corresponding decrease in SAP
same,methemoglobin levels,ARDS; NO inhalation up to 28 days,No important increase of methemoglobin levels
same,PAP,ARDS; during NO breathing,reduced PAP
same,QVA /QT,ARDS; during NO breathing,marked reductions of QVA /QT
same,survival,"ARDS; nine patients, up to 28 days",Seven survived
